Laboratory results reported in patent publication US7163944B2, “Cyclic diamine compound and pharmaceutical containing the same” (Kowa Co., Ltd., priority 2004, dated 2007).

Assays:
[1] = system: lipid-loaded F1B hamster model; experiment: Aorta lipid deposition suppression test, lipid-loaded F1B hamster model; assay type: in vivo; details: Bio F1B male hamsters, fat-rich diet 10 weeks, 1 mg/kg orally twice a day, aorta Oil red O area vs control group
Description: Test 3: Aorta Lipid Deposition Suppression Test
In accordance with the method of Nicolosi, et al., a test using an animal model of arteriosclerosis, that is, a lipid-loaded F1B hamster model was made and a lipid deposition area in the aortic arch was measured to investigate the effects of the test compound for suppressing lipid deposition [refer to Nicolosi R J, et al., Atherosclerosis 137, 77–85(1988)].
Bio F1B male hamsters purchased from Charles River Japan, Inc. were divided at random into three groups (a compound (1) administered group, a comparative compound (B) administered group and a medicament non-administered group (control group)), each group consisting of 6 hamsters. […] After 10 weeks, an area of the lipid deposited in the aorta was measured by an image analyser. […]
An 18-G injection needle was inserted into the cardiac apex, followed by perfusion with physiological saline (120 mmHg) for about 5 minutes, and then, with a 4% paraformaldehyde solution (120 mmHg) for about 5 minutes. […] The image was scanned into a computer and the area of the portion stained with Oil red 0 and the area of the lumen surface were measured using an image analyser software (“Win Roof”, product of Mitani Shoji). In each case of each group, a ratio of the area of the portion stained with Oil Red O to the lumen surface area was calculated and it was designated as an aorta lipid deposition ratio. […]

[2] = Metabolic stability in human liver microsomes; assay type: in vitro ADME
Description: Test 2: Test on Metabolic Stability in Human Liver Microsomes
In accordance with the below-described Table 2, an NRS (NADPH regenerating system) solution and 16% human serum albumin were added to a 0.1 mol/L phosphate buffer (containing 3.3 mM magnesium chloride) (pH 7.4), followed by the addition of a solution of a test compound (100 μM) in acetonitrile (0.01 mL). After preincubation in a warm bath of 37° C. for 5 minutes, human liver microsomes (POOLED HUMAN LIVER MICROSOMES, Lot. No. 20, product of GENETEST) were added and a reaction was effected for 30 minutes in a warm bath of 37° C. A 0.25 mL portion of the reaction mixture was collected 0 and 30 minutes after the initiation of the reaction, followed by extraction. The amount of the test compound was measured by HPLC. A remaining ratio of the unchanged compound after 30 minutes was calculated based on the following equation: (peak area after 30 minutes/peak area at 0 minute)×100.
To each sample were added 1.0 mL of a glycine buffer (pH 10), 0.1 mL of an internal standard substance and 5.0 mL of tert-butyl methyl ether, followed by shaking for 10 minutes and centrifugal separation at 2500 rpm for 10 minutes to collect the organic layer.

[3] = target: T1, ACAT (Mus musculus, UniProt Q61263); experiment: Cholesterol ester accumulation inhibitory action (ACAT inhibitory activity) in J774 cells; assay type: cell-based; details: 25-hydroxycholesterol 10 μg/ml, 18 hours incubation, concentration inhibiting 50% of CE production, N=4
T1 construct: endogenous in cells; host or cells: J774 cells
T1 sequence (Q61263 1-540): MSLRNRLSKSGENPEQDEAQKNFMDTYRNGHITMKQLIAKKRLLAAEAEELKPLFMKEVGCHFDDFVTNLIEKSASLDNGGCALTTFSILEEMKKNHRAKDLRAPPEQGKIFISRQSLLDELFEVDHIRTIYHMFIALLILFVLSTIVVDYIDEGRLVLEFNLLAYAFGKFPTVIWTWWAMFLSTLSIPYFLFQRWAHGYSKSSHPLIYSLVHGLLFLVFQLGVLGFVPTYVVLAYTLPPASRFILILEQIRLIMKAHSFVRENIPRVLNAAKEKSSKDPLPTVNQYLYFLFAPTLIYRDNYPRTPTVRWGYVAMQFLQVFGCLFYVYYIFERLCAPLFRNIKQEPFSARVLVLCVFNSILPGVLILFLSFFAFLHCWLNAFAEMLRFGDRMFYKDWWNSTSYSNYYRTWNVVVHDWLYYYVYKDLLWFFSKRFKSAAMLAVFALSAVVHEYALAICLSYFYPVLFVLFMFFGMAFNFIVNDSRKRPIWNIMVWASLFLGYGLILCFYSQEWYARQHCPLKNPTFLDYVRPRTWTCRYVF
Description: Test 1: Cholesterol Ester Accumulation Inhibitory Action (ACAT Inhibitory Activity) in J774 Cells.
J774 cells (2×10^5 cells/well) were seeded on a 24-well plate and incubated for 24 hours in 500 μL of DMEM (10% FBS). After replacement with a new medium, 25-hydroxycholesterol (10 μg/ml) and a test compound (final concentration: 0, 10^−9 to 10^−5 mol/L) were added, followed by incubation for 18 hours. After washing with 0.9% NaCl, the lipid was extracted with 250 μL of hexane-isopropanol (3:2) and then extracted with 250 μL of hexane-isopropanol (3:2) again. After the extracts were combined and distilled, the amount of cholesterol ester (CE) thus obtained was determined by the fluorescent enzyme assay. The cells from which the lipid was extracted were subjected to protein assay (micro BCA assay) and the amount of CE per mg of protein was determined. From a CE production ratio of the test compound to the control, IC50 (concentration of the compound inhibiting 50% of CE production) was calculated at N=4.

SMILES: O=C(CN1CCN(CCSc2nc3cccc(C(F)(F)F)c3o2)CC1)Nc1c(C(F)(F)F)cc(O)cc1C(F)(F)F [compound (1), 2-[4-[2-(7-trifluoromethylbenzoxazol-2-ylthio)ethyl]piperazin-1-yl]-N-[4-hydroxy-2,6-bis(trifluoromethyl)phenyl]acetamide]
- melting point: 176 to 177 °C
- lipid deposition suppression ratio [1]: 43%
- remaining ratio of the unchanged compound after 30 minutes ([2]; pooled human liver microsomes, 37° C., 30 minutes, NADPH regenerating system, human serum albumin, HPLC): 38%
- metabolic resistance in human liver microsomes relative to compound (B) ([2]; times higher than compound (B)): about 40 times
- IC50 [3]: 49 nM
